Converted amounts (≈) assume the structure as drawn. Where two headings read alike, the source gives them in different places.
Columns and labels:
[1] = tested on: bacteria listed in Table 1; test: Antibacterial test on the bacteria listed in Table 1 (overall statements); type: cell-based; conditions: for antimicrobial activity compared with the (6E)-2,3-dihydrofarnesol described before: same test, bacteria listed in Table 1
Description: (§1) The minimum inhibitory concentrations of (6E)-2,3-dihydrofarnesol synthesized in Synthesis Example 1 on bacteria listed in Table 1 were determined in the following manner by the step dilution method in an agar medium.
(§2) 10 g of brain heart infusion medium (manufactured by Nissui Seiyaku K.K.), 10 g of dry bouillon (manufactured by Nissui Seiyaku K.K.), 4 g of yeast extract powder (manufactured by Difco Laboratories) and 14 g of agar were added to 1,000 ml of distilled water and dissolved therein by heating. Then the obtained solution was pipetted in 10 ml portions into test tubes and sterilized under elevated pressure. Then it was heated again and sustained in the state of a solution. Subsequently, each test solution and ethanol or DMSO (dimethyl sulfoxide) free from any antimicrobial compound of the present invention (employed as a control) were added thereto in amounts of 5 to 200 μl. After mixing, the solutions were poured into plastic Petri dishes (inner diameter: 90 mm) and solidified.
(§3) The medium thus solidified in each Petri dish was divided into 9 parts. Then 5 μl portions of suspensions of the test microorganisms except acne bacteria in distilled water (cell or spore count: 10^8 -10^9 /ml) were inoculated thereinto and incubated at 30° C. for 48 hours.
(§4) In the case of the acne bacteria, a GAM medium (manufactured by Nissui Seiyaku K.K.) was pipetted in 6 ml portions into screwed test tubes (10×105 mm) and sterilized. After adding sample solutions, a culture medium of the acne bacteria was inoculated in 5 μl portions and incubated at 37° C. for 48 hours followed by the judgement of the growth.
Further, the (6E)-2,3-dihydrofarnesol synthesized in Synthesis Example 2 and the (3S)-(6E)-2,3-dihydrofarnesol synthesized in Synthesis Example 3 were subjected to the same test by using the bacteria listed in Table 1.

human skin [2] = test: Patch test on human skin (inside of upper arms); conditions: for skin irritation: 10% in lanolin, 30 subjects, first 24 hours and subsequent 24 hours
Description: (§5) The obtained solution was then applied onto patches (Finnchamber, manufactured by Taisho Pharmaceutical Co., Ltd.). These patches were adhered to the inside of upper arms of 30 subjects. After 24 hours, the patches were peeled from the skin and the skin irritation was examined. Further, the skin irritation was examined after the subsequent 24 hours.

Pseudomonas aeruginosa = test: Antibacterial test, step dilution method in agar medium; type: cell-based; conditions: 30° C., 48 hours
Description: as §1, §2, §3

Bacillus subtilis = test: as above; type: cell-based; conditions: 30° C., 48 hours
Description: as §1, §2, §3

human skin [3] = conditions: in vivo
Description: as §5

acne bacteria = test: Antibacterial test, acne bacteria in GAM medium; type: cell-based; conditions: 37° C., 48 hours
Description: as §1, §4

Guinea pig skin = conditions: in vivo
Description: A sensitization test with the use of Guinea pigs was carried out in accordance with the Magnusson method by using (a) the (6E)-2,3-dihydrofarnesol of a purity of 99% or above, (b) the (6E)-2,3-dihydrofarnesol of a purity of 52% and (d) the (3S)-(6E)-2,3-dihydrofarnesol.
Then the same test was performed by using farnesol [(2E,6E)-form: (2E,6Z)-form: (2Z,6E)-form: (2Z,6Z)-form=1:1:1:1] which was an analog of the (6E)-2,3-dihydrofarnesol of the present invention.

skin = conditions: background, restricts use on a mass scale; cited from earlier work
indigenous skin bacteria = test: Antibacterial test, step dilution method in agar medium; type: cell-based; conditions: 30° C., 48 hours, read-out: minimum inhibitory concentration (MIC)
Description: as §1, §2, §3

coryne bacteria = test: as above; type: cell-based; conditions: 30° C., 48 hours, read-out: minimum inhibitory concentration (MIC)
Description: as §1, §2, §3

Staphylococcus aureus = test: as above; type: cell-based; conditions: 30° C., 48 hours, read-out: minimum inhibitory concentration (MIC)
Description: as §1, §2, §3

[4] = tested on: bacteria listed in Table 1; conditions: JP-A-60-64913; cited from earlier work

Q: For `CC(C)=CCC/C(C)=C/CCC(C)CCO` (stereo not drawn) [(6E)-2,3-dihydrofarnesol], which “antimicrobial activity compared with farnesol” value [1] is on record?
A: superior to farnesol in the antimicrobial activity on some bacteria

Q: And the “sensitization, human skin” value (human skin [2]; 10% in a lanolin solution)?
A: no sensitization

Q: For `CC(C)=CCC/C(C)=C/CCC(C)CCO` (stereo not drawn) [(a), (6E)-2,3-dihydrofarnesol], which “antimicrobial activity compared with the (6E)-2,3-dihydrofarnesol described before” value [1] is on record?
A: almost the same as those described above, though some differences were observed

Q: And the skin irritation (human skin [2])?
A: no skin irritation

Q: Which “minimum inhibitory concentration (MIC)” value (Pseudomonas aeruginosa) does the source give for `CC(C)=CCC/C(C)=C/CCC(C)CCO` (stereo not drawn) [(b), (6E)-2,3-dihydrofarnesol] here?
A: 20 ppm

Q: What about the “minimum inhibitory concentration (MIC)” value (Bacillus subtilis) of the same molecule?
A: 20 ppm

Q: And the “concentration at which an antimicrobial activity was observed” value ([1]; bacteria of Table 1)?
A: ≤ 30 ppm

Q: What about the skin irritation (human skin [3]) of the same molecule?
A: no skin irritation

Q: What about the “concentration at which an antimicrobial activity was exerted” value (acne bacteria) of the same molecule?
A: ≤ 10 ppm

Q: Which results are given for `CC(C)=CCC/C(C)=C/CC[C@H](C)CCO` [(d), (3S)-(6E)-2,3-dihydrofarnesol]?
A: antimicrobial activity compared with the (6E)-2,3-dihydrofarnesol described before [1]: antimicrobial activity similar to the above-mentioned (6E)-2,3-dihydrofarnesol; antimicrobial activity compared with the (6E)-2,3-dihydrofarnesol described before ([1]; listed as (3S)-(6E)-2,3-dihydrofarnesol synthesized in Synthesis Example 3): almost the same as those described above, though some differences were observed; skin irritation (human skin [2]): no skin irritation; sensitization (Guinea pig skin): high safety without any sensitization

Q: Which skin sensitization (skin) does the source give for `CC(C=O)Cc1ccc(C(C)C)cc1` (stereo not drawn) [cyclamen aldehyde] here?
A: skin sensitization

Q: Which MIC (indigenous skin bacteria) does the source give for `CC(C)=CCCC(C)=CCCC(C)=CCO` [farnesol] here?
A: 50 µg/mL (≈ 225 µM)

Q: And the MIC (coryne bacteria)?
A: 25 µg/mL (≈ 112 µM)

Q: And the MIC (Staphylococcus aureus)?
A: 50 µg/mL (≈ 225 µM)

Q: And the antimicrobial activity [4]?
A: has an antimicrobial activity

From patent US5753610A, “Perfume containing (6E) -2,3-dihydrofarnesol” (Takasago International Corporation, priority 1995, dated 1998)
